{"source": "patent US9180136B2", "about": "“Identification and treatment of cancer subsets” (The Translational Genomics Research Institute, priority 2010, dated 2015)", "key": {"SCC-4 cells": {"system": "SCC-4 cells", "assay": "TUNEL apoptosis staining of SCC-4 cells treated with IP6", "type": "cell-based, human", "conditions": "SCC-4 cells treated with IP6 vs untreated, FIG. 8", "text": "FIG. 8 depicts increased apoptosis in a squamous cell carcinoma cell line treated with IP6 (right panel B) relative to the same line without treatment (left panel A), and the DNA blue fluorescence was produced by DAPI probe. Apoptotic nuclei red fluorescence was produced through TUNEL assay; IP6 is an inositol metabolite that is dependant upon INPP5A activity for its synthesis (See FIG. 7). Addition of exogenous IP6 inhibits the cell proliferation brought about by INPP5A loss and drives cells towards a differentiated phenotype. […] Increased TUNEL staining (red) is seen in the IP6 treated cells."}, "[1]": {"system": "normal human keratinocytes", "assay": "TUNEL apoptosis staining of normal human keratinocytes at different confluence treated with IP6", "type": "cell-based", "conditions": "for apoptosis (TUNEL staining): 2 mM IP6 for 24 hours", "protocol": "FIG. 12 depicts the effect of IP6 treatment on confluent normal human keratinocytes. […] The DNA blue fluorescence was produced by DAPI probe. Apoptotic nuclei red fluorescence was produced through TUNEL assay; FIG. 13 depicts the effect of IP6 treatment on 70% confluent keratinocytes. […] The DNA blue fluorescence was produced by DAPI probe. […] Normal human keratinocytes were harvested at various stages of confluency. Cell cultures were assessed by morphological evaluation of the cell and segregated into distinct culture confluence intervals at or near the plateau phase of growth, generally: lower confluence (L), 70-80%; medium confluence (M), 80-90%, and higher confluence (H), >95%. INPP5A mRNA expression at selected culture confluence levels was evaluated by qPCR."}, "SCC-15": {"system": "SCC-15", "assay": "CellTiter-Glo luminescent cell viability after IP6 treatment", "type": "cell-based, human", "conditions": "SCC-15, 0.31-5 mM IP6, 72 hours, FIG. 18", "protocol": "(§1) The human head and neck squamous cell carcinoma lines evaluated were: SCC-4, SCC-9 and SCC-15. The colorectal cancer cell line HT-29 and the kidney embryonic line HEK293, purchased from the American Type Culture Collection (ATCC, Manassas, Va.), were used for comparison. Squamous cell lines were maintained in Dulbecco's Modified Eagle Medium: Nutrient Mixture F12 (DMEM/F12), with 10% Fetal bovine serum (FBS), 2 mM GlutaMAX, 25 mM Hepes buffer, 100 U/ml penicillin and 100 μg/ml streptomycin. HEK293 and HT-29 were cultured in DMEM and RPMI-1640 medium respectively, with the supplements mentioned above. All media and cell culture supplements were purchased from Invitrogen Corporation (Carlsbad, Calif.). Sub-confluent, rapidly growing cells were plated at a density of 600 cells/20 μL/well in a clear bottom 384-well plate with opaque walls, suitable for luminescent measurements. The next day, IP6 (Inositol hexakisphosphate, phytic acid, dipotassium salt, Sigma-Aldrich, St Louis, Mo.) solutions in culture medium, corresponding to the following concentrations: 0.3125, 0.625, 1.25, 2.5 and 5 mM, were prepared, and were stored at 4° C. for 4-6 h. Shortly before treatment, IP6 solutions were centrifuged to remove any precipitates that IP6 forms with calcium chloride. Four wells were treated for each condition. […] (San Luis Obispo, Calif.), following the manufacturer's instruction. Briefly, the assay buffer and substrate were equilibrated at room temperature, and mixed thoroughly. Without removing medium from wells, the assay reagent was added into each well (1:1, volume:volume of medium per well) and the content was mixed for 2 minutes on an orbital shaker to induce cell lysis. The plate was incubated at room temperature for 10 minutes, and the luminescence was read on a Perkin Elmer Victor^3 microplate reader. Data from each set of four replicates was averaged and the standard deviation was calculated. […]"}, "SCC-4": {"system": "SCC-4", "assay": "CellTiter-Glo luminescent cell viability after IP6 treatment", "type": "cell-based, human", "conditions": "SCC-4, 0.31-5 mM IP6, 72 hours, FIG. 18", "protocol": "as §1"}, "SCC-9": {"system": "SCC-9", "assay": "CellTiter-Glo luminescent cell viability after IP6 treatment", "type": "cell-based, human", "conditions": "SCC-9, 0.31-5 mM IP6, 72 hours, FIG. 18", "protocol": "as §1"}, "[2]": {"system": "colorectal adenocarcinoma (HT-29)", "assay": "CellTiter-Glo luminescent cell viability after IP6 treatment", "type": "cell-based", "conditions": "HT-29, 0.31-5 mM IP6, 72 hours, FIG. 18", "protocol": "(§2) The human head and neck squamous cell carcinoma lines evaluated were: SCC-4, SCC-9 and SCC-15. The colorectal cancer cell line HT-29 and the kidney embryonic line HEK293, purchased from the American Type Culture Collection (ATCC, Manassas, Va.), were used for comparison. Squamous cell lines were maintained in Dulbecco's Modified Eagle Medium: Nutrient Mixture F12 (DMEM/F12), with 10% Fetal bovine serum (FBS), 2 mM GlutaMAX, 25 mM Hepes buffer, 100 U/ml penicillin and 100 μg/ml streptomycin. HEK293 and HT-29 were cultured in DMEM and RPMI-1640 medium respectively, with the supplements mentioned above. All media and cell culture supplements were purchased from Invitrogen Corporation (Carlsbad, Calif.). Sub-confluent, rapidly growing cells were plated at a density of 600 cells/20 μL/well in a clear bottom 384-well plate with opaque walls, suitable for luminescent measurements. The next day, IP6 (Inositol hexakisphosphate, phytic acid, dipotassium salt, Sigma-Aldrich, St Louis, Mo.) solutions in culture medium, corresponding to the following concentrations: 0.3125, 0.625, 1.25, 2.5 and 5 mM, were prepared, and were stored at 4° C. for 4-6 h. […] The plate was incubated at room temperature for 10 minutes, and the luminescence was read on a Perkin Elmer Victor^3 microplate reader. Data from each set of four replicates was averaged and the standard deviation was calculated. […]"}, "[3]": {"system": "transformed normal human embryonic kidney cell line (HEK-293)", "assay": "CellTiter-Glo luminescent cell viability after IP6 treatment", "type": "cell-based", "conditions": "HEK-293, 0.31-5 mM IP6, 72 hours, FIG. 18", "protocol": "as §2"}}, "note": "Counter-ions that a name gives are not always drawn."}
{"smiles": "O=P(O)(O)O[C@H]1[C@H](OP(=O)(O)O)[C@@H](OP(=O)(O)O)[C@H](OP(=O)(O)O)[C@@H](OP(=O)(O)O)[C@H]1OP(=O)(O)O", "note": "[IP6, Inositol hexakisphosphate, phytic acid, dipotassium salt]", "values": [{"measurement": "cell death by apoptosis (TUNEL staining)", "setting": "SCC-4 cells", "value": "significant cell death by apoptosis"}, {"measurement": "apoptosis (TUNEL staining)", "setting": "[1]; 70% confluent keratinocytes, FIG. 13", "value": "Greater apoptosis relative to background"}, {"measurement": "apoptosis (TUNEL staining)", "setting": "[1]; 100% confluent keratinocytes, FIG. 12", "value": "reduced apoptosis"}, {"measurement": "selectivity for cells with reduced INPP5A expression", "setting": "[1]; normal human keratinocytes at various stages of confluency", "value": "selective for cells with reduced INPP5A expression"}, {"measurement": "proportion of cells present after treatment relative to untreated cells", "setting": "SCC-15", "value": "dose-dependent reduction in number, which is much greater for the SCC cells"}, {"measurement": "proportion of cells present after treatment relative to untreated cells", "setting": "SCC-4", "value": "dose-dependent reduction in number, which is much greater for the SCC cells"}, {"measurement": "proportion of cells present after treatment relative to untreated cells", "setting": "SCC-9", "value": "dose-dependent reduction in number, which is much greater for the SCC cells"}, {"measurement": "proportion of cells present after treatment relative to untreated cells", "setting": "[2]", "value": "dose-dependent reduction in number"}, {"measurement": "proportion of cells present after treatment relative to untreated cells", "setting": "[3]", "value": "dose-dependent reduction in number"}]}
